PubChem BioAssay AID2060511 (Molecular Pharmacology Branch, DTP, NCI, 2025)

System: 422866-222-R5-J1-PDC spheroids with HUVEC/MSC, viability
Test: Anticancer human tumor 422866-222-R5-J1-PDC patient-derived pancreatic adenocarcinoma cell line growth inhibition [GQUAD]
Details: for IC50: curve of first compound; for viability, T/C: stronger effect = lower value
How it was run: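 Viability of tumor cells grown as complex spheroids with endothelial and stromal cells, exposed to drug combinations. Top concentration at or near clinical Cmax (else 10 microM), diluted in half-log increments.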

[1] = second compound 0.0316 µM, first compound 0.0316 µM
[2] = second compound 0.0316 µM, first compound 0.1 µM
[3] = second compound 0.0316 µM, first compound 0.316 µM
[4] = second compound 0.0316 µM, first compound 1 µM
[5] = second compound 0.0316 µM, first compound 3.16 µM
[6] = second compound 0.0316 µM, first compound 10 µM
[7] = second compound 0.1 µM, first compound 0.0316 µM
[8] = second compound 0.1 µM, first compound 0.1 µM
[9] = second compound 0.1 µM, first compound 0.316 µM
[10] = second compound 0.1 µM, first compound 1 µM
[11] = second compound 0.1 µM, first compound 3.16 µM
[12] = second compound 0.1 µM, first compound 10 µM
[13] = second compound 0.316 µM, first compound 0.0316 µM
[14] = second compound 0.316 µM, first compound 0.1 µM
[15] = second compound 0.316 µM, first compound 0.316 µM
[16] = second compound 0.316 µM, first compound 1 µM
[17] = second compound 0.316 µM, first compound 3.16 µM
[18] = second compound 0.316 µM, first compound 10 µM
[19] = second compound 1 µM, first compound 0.0316 µM
[20] = second compound 1 µM, first compound 0.1 µM
[21] = second compound 1 µM, first compound 0.316 µM
[22] = second compound 1 µM, first compound 1 µM
[23] = second compound 1 µM, first compound 3.16 µM
[24] = second compound 1 µM, first compound 10 µM
[25] = second compound 3.16 µM, first compound 0.0316 µM
[26] = second compound 3.16 µM, first compound 0.1 µM
[27] = second compound 3.16 µM, first compound 0.316 µM
[28] = second compound 3.16 µM, first compound 1 µM
[29] = second compound 3.16 µM, first compound 3.16 µM
[30] = second compound 3.16 µM, first compound 10 µM
[31] = second compound 10 µM, first compound 0.0316 µM
[32] = second compound 10 µM, first compound 0.1 µM
[33] = second compound 10 µM, first compound 0.316 µM
[34] = second compound 10 µM, first compound 1 µM
[35] = second compound 10 µM, first compound 3.16 µM
[36] = second compound 10 µM, first compound 10 µM
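Further: spheroids exposed to compounds for seven days before reading.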
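Wherever viability, T/C is given: percent viability relative to DMSO vehicle control taken as 100%.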

CC(C)n1c(=O)n(C)c2cnc3cc(F)c(-c4ccc(OCCCN5CCCCC5)nc4)cc3c21 + Cc1cnc(CNC(=O)c2c(=O)c3ccc(N4CCCN(C)CC4)nc3n3c2sc2ccccc23)cn1
IC50 (second compound 0.0316 µM): > 10 µM
IC50 (second compound 0.1 µM): > 10 µM
IC50 (second compound 0.316 µM): > 10 µM
IC50 (second compound 1 µM): > 10 µM
IC50 (second compound 3.16 µM): > 10 µM
IC50 (second compound 10 µM): > 10 µM
viability, T/C [1]: 81.6%
viability, T/C [2]: 74.2%
viability, T/C [3]: 75%
viability, T/C [4]: 74%
viability, T/C [5]: 76.7%
viability, T/C [6]: 58.5%
viability, T/C [7]: 84.9%
viability, T/C [8]: 85.2%
viability, T/C [9]: 75%
viability, T/C [10]: 75.6%
viability, T/C [11]: 90.8%
viability, T/C [12]: 50.9%
viability, T/C [13]: 86.2%
viability, T/C [14]: 93%
viability, T/C [15]: 96%
viability, T/C [16]: 80.6%
viability, T/C [17]: 90.8%
viability, T/C [18]: 69.1%
viability, T/C [19]: 87.5%
viability, T/C [20]: 85.8%
viability, T/C [21]: 87.3%
viability, T/C [22]: 96%
viability, T/C [23]: 96.7%
viability, T/C [24]: 71%
viability, T/C [25]: 74.5%
viability, T/C [26]: 90.5%
viability, T/C [27]: 81.1%
viability, T/C [28]: 94.2%
viability, T/C [29]: 92.6%
viability, T/C [30]: 77.4%
viability, T/C [31]: 70.9%
viability, T/C [32]: 76.5%
viability, T/C [33]: 82.2%
viability, T/C [34]: 82.3%
viability, T/C [35]: 85.5%
viability, T/C [36]: 62.5%

Cn1ncnc1[C@H]1c2n[nH]c(=O)c3cc(F)cc(c23)N[C@@H]1c1ccc(F)cc1 + Cc1cnc(CNC(=O)c2c(=O)c3ccc(N4CCCN(C)CC4)nc3n3c2sc2ccccc23)cn1
IC50 (second compound 0.0316 µM): > 0.316 µM
IC50 (second compound 0.1 µM): > 0.316 µM
IC50 (second compound 0.316 µM): > 0.316 µM
IC50 (second compound 1 µM): > 0.316 µM
IC50 (second compound 3.16 µM): > 0.316 µM
IC50 (second compound 10 µM): > 0.316 µM
viability, T/C (second compound 0.0316 µM, first compound 0.000999 µM): 94.9%
viability, T/C (second compound 0.0316 µM, first compound 0.00316 µM): 85%
viability, T/C (second compound 0.0316 µM, first compound 0.00999 µM): 93.8%
viability, T/C [1]: 81.2%
viability, T/C (second compound 0.0316 µM, first compound 0.0999 µM): 70.9%
viability, T/C [3]: 69.4%
viability, T/C (second compound 0.1 µM, first compound 0.000999 µM): 89.1%
viability, T/C (second compound 0.1 µM, first compound 0.00316 µM): 91.2%
viability, T/C (second compound 0.1 µM, first compound 0.00999 µM): 81.1%
viability, T/C [7]: 79.3%
viability, T/C (second compound 0.1 µM, first compound 0.0999 µM): 78.2%
viability, T/C [9]: 71.8%
viability, T/C (second compound 0.316 µM, first compound 0.000999 µM): 91.6%
viability, T/C (second compound 0.316 µM, first compound 0.00316 µM): 78.6%
viability, T/C (second compound 0.316 µM, first compound 0.00999 µM): 87.4%
viability, T/C [13]: 84%
viability, T/C (second compound 0.316 µM, first compound 0.0999 µM): 73.1%
viability, T/C [15]: 83.9%
viability, T/C (second compound 1 µM, first compound 0.000999 µM): 75.8%
viability, T/C (second compound 1 µM, first compound 0.00316 µM): 77.4%
viability, T/C (second compound 1 µM, first compound 0.00999 µM): 80.7%
viability, T/C [19]: 80.5%
viability, T/C (second compound 1 µM, first compound 0.0999 µM): 88.1%
viability, T/C [21]: 74.9%
viability, T/C (second compound 3.16 µM, first compound 0.000999 µM): 86.3%
viability, T/C (second compound 3.16 µM, first compound 0.00316 µM): 71.5%
viability, T/C (second compound 3.16 µM, first compound 0.00999 µM): 82%
viability, T/C [25]: 70.7%
viability, T/C (second compound 3.16 µM, first compound 0.0999 µM): 78.4%
viability, T/C [27]: 71%
viability, T/C (second compound 10 µM, first compound 0.000999 µM): 75.2%
viability, T/C (second compound 10 µM, first compound 0.00316 µM): 78.2%
viability, T/C (second compound 10 µM, first compound 0.00999 µM): 77.3%
viability, T/C [31]: 77.9%
viability, T/C (second compound 10 µM, first compound 0.0999 µM): 84%
viability, T/C [33]: 66.9%

CC(C)n1c(=O)n(C)c2cnc3cc(F)c(-c4ccc(OCCCN5CCCCC5)nc4)cc3c21 + CN(C)c1ccc(Nc2c3ccc(NC(=O)CCN4CCCC4)cc3nc3cc(NC(=O)CCN4CCCC4)ccc23)cc1
IC50 (second compound 0.0316 µM): > 10 µM
IC50 (second compound 0.1 µM): > 10 µM
IC50 (second compound 0.316 µM): > 10 µM
IC50 (second compound 1 µM): > 10 µM
IC50 (second compound 3.16 µM): > 10 µM
IC50 (second compound 10 µM): > 10 µM
viability, T/C [1]: 99.8%
viability, T/C [2]: 99%
viability, T/C [3]: 93.5%
viability, T/C [4]: 96%
viability, T/C [5]: 103%
viability, T/C [6]: 67.1%
viability, T/C [7]: 100%
viability, T/C [8]: 78.5%
viability, T/C [9]: 101%
viability, T/C [10]: 90.5%
viability, T/C [11]: 90.7%
viability, T/C [12]: 70%
viability, T/C [13]: 103%
viability, T/C [14]: 95.4%
viability, T/C [15]: 92.4%
viability, T/C [16]: 81.2%
viability, T/C [17]: 88.8%
viability, T/C [18]: 70.2%
viability, T/C [19]: 87.2%
viability, T/C [20]: 92.5%
viability, T/C [21]: 87.9%
viability, T/C [22]: 98.6%
viability, T/C [23]: 83.8%
viability, T/C [24]: 55.1%
viability, T/C [25]: 82.8%
viability, T/C [26]: 80.1%
viability, T/C [27]: 86.8%
viability, T/C [28]: 88.9%
viability, T/C [29]: 81.6%
viability, T/C [30]: 61.6%
viability, T/C [31]: 73.8%
viability, T/C [32]: 80.9%
viability, T/C [33]: 80.4%
viability, T/C [34]: 64.3%
viability, T/C [35]: 68.5%
viability, T/C [36]: 51.7%
